This passage reports Kd results from publication PMC3701073, “The Mode of Inhibitor Binding to Peptidyl-tRNA Hydrolase: Binding Studies and Structure Determination of Unbound and Bound Peptidyl-tRNA Hydrolase from Acinetobacter baumannii” (PLoS ONE, 2013).

Usually Kd stands for a measure of binding affinity in units of concentration. Read a high Kd as lower affinity.

In this test the target is T1, peptidyl-tRNA hydrolase from Acinetobacter baumannii (AbPth) (Acinetobacter baumannii, UniProt D0C9L6).
T1 construct: gene pth; full length, 193 residues (Met1-Ala193), N-terminal 6xHis tag (pET-28a, NdeI/XhoI; cleavage not mentioned), E. coli BL21(DE3)
T1 sequence (D0C9L6 1-193): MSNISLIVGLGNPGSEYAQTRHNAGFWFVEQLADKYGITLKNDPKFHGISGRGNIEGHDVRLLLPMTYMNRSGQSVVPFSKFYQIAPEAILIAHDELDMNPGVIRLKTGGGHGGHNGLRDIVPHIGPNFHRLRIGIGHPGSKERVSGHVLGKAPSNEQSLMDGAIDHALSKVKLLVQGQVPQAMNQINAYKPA
Description: intrinsic fluorescence quenching (Scatchard). The test is classed as binding.

Take `Nc1ccn([C@@H]2O[C@H](CO)[C@@H](O)[C@H]2O)c(=O)n1` [cytidine]: the Kd worked out at 4.79 nM.
Regarding `O=c1ccn([C@@H]2O[C@H](CO)[C@@H](O)[C@H]2O)c(=O)[nH]1` [uridine], the Kd is about 2.11 nM.
